The structures appear in SMILES notation. Where “and” joins values, the source holds several entries; their conditions need not be identical. Equal values may be shown once. Inconclusive results are not listed. Calls of active or inactive are those of the source. How the calls were made is not given here.

The experiment deals with C. albicans CaCi-8 + fluconazole, Alamar Blue growth, 48 h. Description: resistant C. albicans growth inhibition with fluconazole, dose response, CaCi-8 strain, Alamar Blue fluorescence (AID 2423). Background: The colour change of resazurin is a common sign of viable cells or microbes.
In the case of `CCCCCCSc1nnc2[nH]c(=O)cc(N)n12`, the EC50 – broadly, the concentration giving half of the maximal effect – is 1.15 µM. In the case of `c1ccc(Sc2cccc3ccccc23)c(CNC2=NCCN2)c1`, the EC50 is 9.52 µM.

On to `O=c1c2cc(Br)ccc2nc(-c2cccc(C(F)(F)F)c2)n1O`, for which the 50% effective concentration (EC50) was 1.04 µM. Consider `COCCSc1nnc(NC(=O)CCS(=O)(=O)c2ccccc2)s1`, for which the EC50 is 1.86 µM. In the case of `Cc1ccccc1-c1ccnc2[nH]n(-c3ccccc3)c(=O)c12`, the EC50 is 14.5 µM. As to `COC1=CC(=O)C(O)=C(CCCCCCC/C=C/CCCCCCCC2=C(O)C(=O)C=C(OC)C2=O)C1=O`, the EC50 is 11.9 µM. Regarding `CN(C)S(=O)(=O)Oc1cccc(C(=O)Nc2ccc(Cl)c(Cl)c2)c1`, the EC50 is 0.711 µM. For `COc1ccccc1NC(c1cccnc1)c1ccc2cccnc2c1O` (centres undefined), the EC50 is 14.9 µM. `CC(C)c1ccc2oc(-c3ccc(NC(=O)c4ncn[nH]4)cc3)nc2c1`: the EC50 was > 16 µM (inactive).

As to `Nc1nc(N)c2cc(Sc3ccc4ccccc4c3)ccc2n1`, the concentration for a half-maximal effect (EC50) was 1.18 µM. Consider `Cn1c(=O)n(CC#N)c2ccccc21`, for which the EC50 is 14.8 µM. Turning to `Cc1c(Cl)ccc2c1NC(=O)[C@]21N[C@@H](Cc2ccccc2)[C@H]2C(=O)N(c3ccc(F)cc3)C(=O)[C@H]21`, the EC50 is less than 0.12 µM. Consider `CCn1c(=O)c(C(=O)NCc2cccnc2)c(O)c2ccccc21`, for which the EC50 is 9.52 µM. Turning to `Nc1c(S(=O)(=O)c2cccc(Cl)c2)c2nc3ccccc3nc2n1/N=C/c1ccc(O)c(O)c1`, the EC50 was 6.49 µM.

In the case of `COc1cccc(/C=N/NC(=O)c2cc(-c3cccn3C)n[nH]2)c1O`, the EC50 is 5.64 µM.

Regarding `Cc1ccc2nc(-c3ccc(NC(=S)NC4CC(C)(C)NC(C)(C)C4)cc3)sc2c1`, the EC50 is 1.9 µM. As to `CCOC(=O)CSc1ccc(C(=O)N2CCN(C)CC2)cc1[N+](=O)[O-]`, the EC50 is > 16 µM (inactive).

With `Cc1c(CCOC(=O)C23CC4(C)CC(C)(CC(C)(C4)C2)C3)sc[n+]1CC(=O)c1ccccc1`, the EC50 is > 15 µM (inactive).

In the case of `CCOc1ccc2nc3cc(NCc4ccc(OC)cc4)ccc3c(N)c2c1`, the EC50 was 4.28 µM. `O=C(NCc1ccc(F)cc1)c1ccc(CS(=O)(=O)Cc2ccccc2F)o1`: the EC50 was > 15 µM (inactive). In the case of `CC1(C)CC(N2CCCC2)=CC(=[N+]2CCCC2)C1` it was 6.31 µM. In the case of `CCOC(=O)c1nc(NNC(=O)c2ccc([N+](=O)[O-])cc2)sc1C` it was 0.981 µM.

For `CSc1cnc2c(N)nc(N(C)C)nc2n1`, the EC50 was 12.4 µM. Regarding `Cc1cccc(C2CC3(CC(C)(C)NC(=S)N3)Oc3cc(O)ccc32)c1` (centres undefined), the EC50 is 3.97 µM. In the case of `CCOC(=O)C(CC)/C(C)=N\NC(=O)c1ccccc1O` (centres undefined) it was 7.82 µM. With `CCN(CC)c1ccc(/C=N/NC(=O)c2nnn(-c3nonc3N)c2C(C)C)c(O)c1`, the EC50 is 0.472 µM. In the case of `COc1ccc(-c2cc(-c3c(O)c(OC)c4occc4c3OC)[nH]n2)cc1OC`, the EC50 is > 16 µM (inactive). In the case of `CCOC(=O)c1cnc2ccc(C)cc2c1Nc1ccc(N2CCOCC2)cc1` it was 1.1 µM; in that of `Cc1cc(C)n(-c2nc(SCCN(C)C)c3c4c(sc3n2)CCCC4)n1`, 6.43 µM. `O=S(=O)(Cc1ccc(Cl)cc1)N1CCN(Cc2ccccc2)CC1`: the EC50 is > 16 µM (inactive). Regarding `O=C(CCS(=O)(=O)c1ccc(F)cc1)Nc1nc(-c2ccncc2)cs1`, the EC50 was 1.49 µM. Next, `COc1ccc(-n2cccc2/C=C2\C(=N)N3N=C(C(C)C)SC3=NC2=O)cc1`: 16.3 µM; `CC(C)(C)c1ccc(C(=O)CC(=O)c2cc(Cl)ccc2O)cc1`: 4.77 µM; `Cc1c(OCC(=O)NCC(O)c2ccccc2)ccc2c(-c3ccccc3)cc(=O)oc12` (centres undefined): 1.26 µM.

`CCc1ccc(OCC(=O)NNC(=S)NC(=O)C2CC2)c(Br)c1`: the EC50 is 1.19 µM. With `Cc1ccc(C(=O)CC(=O)c2ccccc2C)c(O)c1`, the EC50 was 1.9 µM. For the compound `CC(=O)c1cnc2cc(-c3cccc(Br)c3)nn2c1C`, the EC50 was > 15 µM (inactive).

Consider `Oc1ccc(N=Nc2ccc3c(c2)OCCO3)c2ncccc12`, for which the EC50 is 0.709 µM. Regarding `O=c1c2ccccc2nc(/C=C/c2ccc([N+](=O)[O-])o2)n1CCCO`, the EC50 was 0.153 µM.

On to `NC(=O)c1ccc(Nc2nnc(-c3ccc(O)cc3)c3ccccc23)cc1`, for which the EC50 was 7.93 µM. For the compound `O=C(c1ccc(Cl)cc1)N1CCN(c2ccnc3cc(Cl)ccc23)CC1`, the EC50 was 0.863 µM. Next, `Cc1c(Nc2scc(-c3ccccc3)[n+]2-c2ccccc2)c(=O)n(-c2ccccc2)n1C`: 0.225 µM. Consider `CC(=O)Oc1c(-c2ccc(Br)o2)oc2ccccc2c1=O`, for which the EC50 is 4.2 µM. Take `O=C(c1cc(COc2cccc(C(F)(F)F)c2)on1)N1CCC(c2ccncc2)CC1`: the EC50 is 2.54 µM. As to `O=C(NC(=S)NNC(=O)[C@H]1C[C@@H]1c1ccccc1)c1cccc(F)c1`, the EC50 is 2.56 µM. In the case of `Cc1nn(-c2ccccc2)c(Cl)c1/C=C/C(=O)c1ccc(O)cc1`, the EC50 is 1.64 µM. Regarding `N=C(N)c1ccc(/C=C/c2ccc(C(=N)N)cc2O)cc1`, the EC50 was > 15 µM (inactive). On to `Cc1ccc(OCC(=O)NNC(=S)NC(=O)C2CC2)c(C)c1`, for which the EC50 was 0.83 µM. For the compound `Cc1ccccc1C(=O)Nc1nnc(-c2ccc(F)cc2)o1`, the EC50 was 0.624 µM. As for `CCOC(=O)c1c(-c2ccccc2)oc2ccc(OCC(O)CN(C)C)cc12` (centres undefined), the EC50 was 1.29 µM. In the case of `CCN(CC)c1cccc(OC2=NS(=O)(=O)c3ccccc32)c1` it was 11 µM; in that of `Cc1cc(N2C(=O)C(O)=C(C(=O)c3cc4ccccc4o3)C2c2cccs2)no1` (centres undefined), 4.08 µM. Take `CCc1ccc(/C=C/C(=O)c2cc(Br)ccc(=O)c2O)cc1`: the EC50 is 0.833 µM.

Turning to `CC(C)COCc1ccc(O)c2ncccc12`, the EC50 is 1.47 µM. Take `c1ccc2c(c1)OCC(CNc1ncnc3sccc13)O2` (centres undefined): the EC50 was 4.01 µM. In the case of `Oc1cccc(C(Nc2nccs2)c2ccc3cccnc3c2O)c1` (centres undefined), the EC50 is 1.39 µM.

Take `O=C(c1ccc(Cn2c(=S)[nH]c3ccccc3c2=O)cc1)N1CCN(c2ccccn2)CC1`: the EC50 is 0.695 µM. Consider `O=C(CSc1nnc(-c2ccco2)n1Cc1ccccc1)OC1CCCCC1`, for which the EC50 is > 15 µM (inactive). Next, `CCOc1cc(S(=O)(=O)NCc2ccccc2)c(OCC)cc1-n1cnnn1`: > 15 µM (inactive); `Cc1cccc2sc(NNC(=O)c3cc(-c4cccs4)nc4ccccc34)nc12`: 0.583 µM.

With `NC(=S)n1[nH]c(-c2ccccc2)c(N=Nc2ccccc2C(=O)N2CCOCC2)c1=O`, the EC50 was 8.43 µM. Take `N#Cc1cc(C#N)c(N2CCN(c3cccc(Cl)n3)CC2)nc1N`: the 50% effective concentration (EC50) is 1.58 µM. For `COc1ccc(NC(=O)NNC(=O)c2cc3ccccc3cc2O)cc1`, the EC50 was > 16 µM (inactive). In the case of `COc1ccc(OC)c2[nH]c(C(=O)N/N=C/c3ccccc3O)cc12` it was 0.914 µM.

For the compound `CC1CCC(C(C)C)C(OC(=O)Cn2c(-c3ccc(Br)cc3)[n+](C)c3ccccc32)C1` (centres undefined), the EC50 was 0.534 µM and 0.752 µM. Consider `Cc1ccc(NS(=O)(=O)c2ccc(CCC(=O)NCCO)cc2)cc1`, for which the EC50 was > 15 µM (inactive). Turning to `O=C(CN1CCCc2ccccc21)N/N=C/c1c(O)ccc2ccccc12`, the EC50 was 1.2 µM. Consider `Cc1cc(C(=O)Nc2sc3c(c2C#N)CCCC3)no1`, for which the EC50 was 0.979 µM.

In the case of `O=C(O)c1ccc(Nc2cnc3ccccc3n2)cc1`, the EC50 is > 16 µM (inactive).

Consider `N/C(Cc1ccc(Cl)cc1Cl)=N\OC(=O)c1ccccc1`, for which the EC50 was 0.833 µM.

Take `Cc1ccc2occ(/C=N/NC(=O)c3ccccc3O)c(=O)c2c1`: the concentration giving a half-maximal response (EC50) is 15.1 µM. Regarding `COc1cccc2sc(=NC(=O)CS(=O)(=O)c3ccc(Cl)cc3)n(C)c12`, the EC50 was 6.53 µM. On to `CCCNC(=O)c1ccc2c(=O)c(O)c(-c3ccc(OC)cc3)[nH]c2c1`, for which the EC50 was 2.47 µM.

Turning to `CC(C)n1cc(/C=C/c2cc[n+](C)cc2)c2ccccc21`, the EC50 is 3.09 µM. As to `Cc1nnc(NC(=O)c2c(-c3ccccc3Cl)noc2C)s1`, the EC50 is 3.08 µM. In the case of `Cc1cccc(-n2nc(C(=O)c3ccco3)cc(-c3nc4ccccc4[nH]3)c2=N)c1`, the EC50 was 6.09 µM. Next, `CCOc1cccc(-c2c(C(=O)N/N=C(\C)c3ccccn3)nnn2-c2nonc2N)c1`: 15.6 µM; `O=C(c1cc(-c2ccccc2)n[nH]1)N1CCc2c([nH]c3ccccc23)C1c1ccccn1` (centres undefined): 0.692 µM; `CCOC(=O)c1cnc(-n2cc(C)cn2)nc1Nc1ccccc1OCC`: 12.5 µM. `Cc1cccc(-n2c(SCc3cc(=O)n4ccsc4n3)nc3ccccc32)c1`: the EC50 is > 15 µM (inactive). For the compound `COc1cccc(/C=N/Nc2cc(C)nc(-c3ccccc3O)n2)c1O`, the concentration giving a half-maximal response (EC50) was less than 0.12 µM.

As for `O=C(CN1C(=O)COc2ccccc21)NCCCN1CCc2ccccc2C1`, the EC50 is > 15 µM (inactive). Regarding `CC(C)[C@H]1C(=O)O[C@H](C(C)C)C(=O)N(C)[C@@H](C(C)C)C(=O)O[C@H](C(C)C)C(=O)N(C)[C@@H](C(C)C)C(=O)O[C@H](C(C)C)C(=O)N1C`, the EC50 is > 15 µM (inactive).

On to `Cn1c(-c2c(N)n(CCc3ccccc3)c3nc4ccccc4nc23)nc2ccccc21`, for which the EC50 was 6.18 µM. Take `CCc1ccc2oc(-c3ccc(OC)cc3)cc(=Nc3c(C)n(C)n(-c4ccccc4)c3=O)c2c1`: the EC50 is 1.54 µM. Next, `COc1ccccc1C(=O)NNC(=S)NC(=O)c1cc(OC)c(OC)c(OC)c1`: 9.62 µM. `O=[N+]([O-])c1cc(/C=N/Nc2nc3ccccc3[nH]2)c(O)cc1O`: the EC50 was 6.22 µM. For the compound `Cc1ccc(C2C3CSCC=C3C(C#N)=C(N)C2(C#N)C#N)cc1` (centres undefined), the EC50 was 16.3 µM.

Regarding `CCCC(=O)NC(c1ccc(OC)cc1)c1ccc2cccnc2c1O` (centres undefined), the half-maximal effective concentration (EC50) was 0.893 µM. Turning to `O=C(Nc1nnc(SCc2ccc(F)cc2)s1)c1ccccn1`, the EC50 was 0.487 µM. In the case of `O=C(O)COc1ccccc1C(Nc1cccnc1)c1cc(Cl)c2cccnc2c1O` (centres undefined), the EC50 is 9.89 µM. In the case of `CCCNC(=O)c1ccc2c(=O)c(O)c(-c3ccc(Cl)c([N+](=O)[O-])c3)[nH]c2c1` it was 1.92 µM. For the compound `Clc1ccc2c(c1)C(c1cccs1)=NNC(c1cccnc1)=N2`, the EC50 is less than 0.12 µM.

`CC(C)CC(=O)NC(=S)NNC(=O)c1ccc(NC(=O)C2CCCCC2)cc1`: the EC50 was 1.21 µM.

These data come from PubChem BioAssay AID2423 (Broad Institute, 2010).
